How the values were obtained:
[1] = molecular target: T1, phosphorylated VEGF-R2Δ50 (FLVK-P) (Homo sapiens, UniProt P35968, DEL940-989/E990V); test: VEGF-R2 coupled spectrophotometric (FLVK-P) assay; type: biochemical; conditions: for Ki: Table 1, spectrophotometric assay
T1 construct: VEGF-R2Δ50 contains residues 806-939 and 990-1171; made in house; host or cells: baculovirus/insect cells
Summary of the method: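 Baculovirus-expressed human VEGF-R2Δ50 (residues 806-939/990-1171, E990V) was autophosphorylated with 3 mM ATP, 40 mM MgCl2 for 2 h at 4° C. ADP formation was coupled via PK/LDH to NADH oxidation, read at 340 nm, with 5.1 mM poly(E4Y1), 1 mM ATP, 25 mM MgCl2, Hepes pH 7.5. Ki came from activity across compound concentrations.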

[2] = tested on: human umbilical vein endothelial cells (HUVEC); test: HUVEC proliferation assay; type: cell-based; conditions: Homo sapiens, HUVEC, Table 1
Summary of the method: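 Readout was MTT dye reduction (A595) after 72 h of stimulation with VEGF at 6 ng/ml final. Compound, in 0.1% DMSO final, was added 1 h before VEGF to HUVEC starved 24 h in 1% FBS. % inhibition was scaled between VEGF-alone and unstimulated wells; IC50 was fitted from triplicate dose curves.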

[3] = tested on: lung cancer cells (line MV522); test: Cancer cell proliferation (MV522) assay; type: cell-based; conditions: MV522, Table 1
Description: Cancer Cell Proliferation (MV522) Assay
The protocol for assessing cellular proliferation in cancer cells is similar to that used for assessments in HUVEC cells. Two thousand lung cancer cells (line MV522, acquired from American Tissue Cultural Collection) were seeded in growth media (RPMI1640 medium supplemented with 2 mM glutamine and 10% FBS). Cells are allowed to attach for 1 day prior to addition of test agents and/or vehicles. Cells are treated simultaneously with the same test agents used in the HUVEC assay. Cellular proliferation is quantified by MTT dye reduction assay 72 hours after exposure to test agents. The total length of the assay is 4 days vs. 5 for HUVEC cells because MV522 cells are not exposed to starvation medium.

[4] = molecular target: T2, unphosphorylated VEGF-R2Δ50 (FLVK) (Homo sapiens, UniProt P35968, DEL940-989/E990V); test: VEGF-R2 coupled spectrophotometric assay, unphosphorylated enzyme (FLVK); type: biochemical
T2 construct: VEGF-R2Δ50 contains residues 806-939 and 990-1171; made in house; host or cells: baculovirus/insect cells
T2 sequence (P35968 with tags, fused parts or gaps DEL940-989/E990V limits assumed): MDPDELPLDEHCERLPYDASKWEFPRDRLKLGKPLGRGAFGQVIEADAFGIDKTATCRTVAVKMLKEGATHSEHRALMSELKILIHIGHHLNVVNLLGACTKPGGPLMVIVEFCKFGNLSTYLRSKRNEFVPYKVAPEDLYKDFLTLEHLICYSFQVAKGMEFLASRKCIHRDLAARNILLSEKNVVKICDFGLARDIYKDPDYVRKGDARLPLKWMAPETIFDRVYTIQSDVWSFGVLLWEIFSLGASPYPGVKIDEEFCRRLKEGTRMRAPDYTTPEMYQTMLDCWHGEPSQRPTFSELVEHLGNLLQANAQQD
Summary of the method: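 Unphosphorylated VEGF-R2Δ50 (5 to 40 nM) with 20 mM poly(E4Y1), 3 mM ATP, 60 mM MgCl2, 2 mM MnCl2 in 200 mM Hepes pH 7.5. ADP production coupled via PK/LDH to NADH oxidation, read at 340 nm. Ki from activity at varying compound concentrations.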

T1 sequence (P35968 with tags, fused parts or gaps DEL940-989/E990V limits assumed): as above

Ki [1] [µM] | IC50 [3] [µM] | Ki ([4]; Table 1) [µM] | Ki ([4]; Table 3, some entries 'Slow binder') [µM] | inhibition at 0.05 µM ([1]; Table 3, at 50 nM) [%] | Compound | IC50 [2] [µM]
0.0079 | > 10 | – | – | – | COc1ccc(Nc2nc(N)c(-c3nc(-c4cccc(NC(=O)c5ccccc5)c4)cs3)s2)cc1OC [A(47), N-{3-[4′-Amino-2′-(3,4-dimethoxy-phenylamino)-[2,5′]bithiazolyl-4-yl]-phenyl}-benzamide] | 0.26
0.0165 | 3.65 | – | – | – | COc1cc(Nc2nc(N)c(-c3nc(-c4cccc(NC(=O)OC(C)(C)C)c4)no3)s2)cc(OC)c1OC [B(2), 3-(3-tert-Butyloxycarboxy-aminophenyl)-5-[2-[(3,4,5-trimethoxyphenyl)amino]-4-amino-5-thiazolyl]-1,2,4-oxadiazole] | > 0.7
0.063 | > 10 | – | – | – | COc1cc(Nc2nc(N)c(-c3nc(-c4cccc(NS(C)(=O)=O)c4)cs3)s2)cc(OC)c1OC [D(3), N-{3-[4′-Amino-2′-(3,4,5-trimethoxy-phenylamino)-[2,5′]bithiazolyl-4-yl]-phenyl}-methanesulfonamide] | > 0.7
0.0037 | > 10 | – | – | – | Nc1nc(Nc2ccccc2)sc1-c1nc(-c2cccc(NC(=O)OCc3ccccc3)c2)cs1 [D(20), [3-(4′-Amino-2′-phenylamino-[2,5′]bithiazolyl-4-yl)-phenyl]-carbamic acid benzyl ester] | 0.99
0.15 | > 10 | – | – | – | COc1cc(Nc2nc(N)c(-c3nc(-c4cccc(NC(=O)O[C@H](C)c5ccccc5)c4)cs3)s2)cc(OC)c1OC [D(23), {3-[4′-Amino-2′-(3,4,5-trimethoxy-phenylamino)-[2,5′]bithiazolyl-4-yl]-phenyl}-carbamic acid 1-R-phenyl-ethyl ester] | 0.13
0.001 | > 10 | – | – | – | Nc1nc(Nc2ccc(S(N)(=O)=O)cc2)sc1-c1nc(-c2cccc(NC(=O)OCc3ccccc3)c2)cs1 [D(25), {3-[4′-Amino-2′-(4-sulfamoyl-phenylamino)-[2,5′]bithiazolyl-4-yl]-phenyl}-carbamic acid benzyl ester] | 0.745
0.0018 | > 10 | – | – | – | COc1cc(Nc2nc(N)c(-c3nc(-c4cccc(NC(=O)c5cccc(C(C)C)c5)c4)cs3)s2)cc(OC)c1OC [D(27), N-{3-[4′-Amino-2′-(3,4,5-trimethoxy-phenylamino)-[2,5′]bithiazolyl-4-yl]-phenyl}-3-isopropyl-benzamide] | 0.082
0.0014 | > 10 | – | – | – | COc1cc(Nc2nc(N)c(-c3nc(-c4cccc(NC(=O)c5cccc(Br)c5)c4)cs3)s2)cc(OC)c1OC [D(29), N-{3-[4′-Amino-2′-(3,4,5-trimethoxy-phenylamino)-[2,5′]bithiazolyl-4-yl]-phenyl}-3-bromo-benzamide] | 0.032
0.0029 | > 10 | – | – | – | COc1cc(Nc2nc(N)c(-c3nc(-c4cccc(NC(=O)c5ccc(Cl)c(C)c5)c4)cs3)s2)cc(OC)c1OC [D(30), N-{3-[4′-Amino-2′-(3,4,5-trimethoxy-phenylamino)-[2,5′]bithiazolyl-4-yl]-phenyl}-4-chloro-3-methyl-benzamide] | 0.048
0.0039 | > 10 | – | – | – | COc1cc(C(=O)Nc2cccc(-c3csc(-c4sc(Nc5cc(OC)c(OC)c(OC)c5)nc4N)n3)c2)ccc1C [D(32), N-{3-[4′-Amino-2′-(3,4,5-trimethoxy-phenylamino)-[2,5′]bithiazolyl-4-yl]-phenyl}-3-methoxy-4-methyl-benzamide] | 0.059
0.00085 | 9 | – | – | – | COc1cc(Nc2nc(N)c(-c3nc(-c4cccc(NC(=O)c5ccc(C)s5)c4)cs3)s2)cc(OC)c1OC [D(34), 5-Methyl-thiophene-2-carboxylic acid {3-[4′-amino-2′-(3,4,5-trimethoxy-phenylamino)-[2,5′]bithiazolyl-4-yl]-phenyl}-amide] | 0.089
0.0018 | > 10 | – | – | – | COc1cc(Nc2nc(N)c(-c3nc(-c4cccc(NC(=O)c5ccc(Cl)s5)c4)cs3)s2)cc(OC)c1OC [D(35), 5-Chloro-thiophene-2-carboxylic acid {3-[4′-amino-2′-(3,4,5-trimethoxy-phenylamino)-[2,5′]bithiazolyl-4-yl]-phenyl}-amide] | 0.042
0.002 | > 10 | – | – | – | COc1cc(Nc2nc(N)c(-c3nc(-c4cccc(NC(=O)c5ccc(Br)s5)c4)cs3)s2)cc(OC)c1OC [D(36), 5-Bromo-thiophene-2-carboxylic acid {3-[4′-amino-2′-(3,4,5-trimethoxy-phenylamino)-[2,5′]bithiazolyl-4-yl]-phenyl}-amide] | 0.043
0.0034 | > 10 | – | – | – | COc1cc(Nc2nc(N)c(-c3nc(-c4cccc(NC(=O)c5ccc(Br)o5)c4)cs3)s2)cc(OC)c1OC [D(37), 5-Bromo-furan-2-carboxylic acid {3-[4′-amino-2′-(3,4,5-trimethoxy-phenylamino)-[2,5′]bithiazolyl-4-yl]-phenyl}-amide] | 0.15
0.00093 | > 10 | – | – | – | COc1cc(Nc2nc(N)c(-c3nc(-c4cccc(NC(=O)c5cccc(C)c5)c4)cs3)s2)cc(OC)c1OC [D(38), N-{3-[4′-Amino-2′-(3,4,5-trimethoxy-phenylamino)-[2,5′]bithiazolyl-4-yl]-phenyl}-3-methyl-benzamide] | 0.04
0.0014 | > 10 | – | – | – | CCc1cccc(C(=O)Nc2cccc(-c3csc(-c4sc(Nc5cc(OC)c(OC)c(OC)c5)nc4N)n3)c2)c1 [D(39), N-{3-[4′-Amino-2′-(3,4,5-trimethoxy-phenylamino)-[2,5′]bithiazolyl-4-yl]-phenyl}-3-ethyl-benzamide] | 0.062
0.0019 | > 10 | – | – | – | COc1cccc(C(=O)Nc2cccc(-c3csc(-c4sc(Nc5cc(OC)c(OC)c(OC)c5)nc4N)n3)c2)c1 [D(41), N-{3-[4′-Amino-2′-(3,4,5-trimethoxy-phenylamino)-[2,5′]bithiazolyl-4-yl]-phenyl}-3-methoxy-benzamide] | 0.037
0.0029 | > 10 | – | – | – | COc1cc(Nc2nc(N)c(-c3nc(-c4cccc(NC(=O)OC(C)(C)C)c4)cs3)s2)cc(OC)c1OC [D(43), {3-[4′-Amino-2′-(3,4,5-trimethoxy-phenylamino)-[2,5′]bithiazolyl-4-yl]-phenyl}-carbamic acid tert-butyl ester] | 0.241
– | 0.65 | – | – | – | COc1cc(Nc2nc(N)c(-c3nc(-c4cccc(NC(C)=O)c4)no3)s2)cc(OC)c1OC [D(45), 3-[3-Acetamidophenyl]-5-[2-[(3,4,5-trimethoxyphenyl)amino]-4-amino-5-thiazolyl]-1,2,4-oxadiazole] | 0.235
0.0171 | > 10 | – | – | – | COc1cc(Nc2nc(N)c(-c3nc(-c4cccc(NC(=O)c5ccccc5)c4)no3)s2)cc(OC)c1OC [D(46), 3-[3-Benzamidophenyl]-5-[2-[(3,4,5-trimethoxyphenyl)amino]-4-amino-5-thiazolyl]-1,2,4-oxadiazole] | 0.123
0.0041 | > 10 | – | – | – | COc1cccc(C(=O)Nc2cccc(-c3noc(-c4sc(Nc5cc(OC)c(OC)c(OC)c5)nc4N)n3)c2)c1 [D(48), 3-[3-(3-Methoxybenzamido)phenyl]-5-[2-[(3,4,5-trimethoxyphenyl)amino]-4-amino-5-thiazolyl]-1,2,4-oxadiazole] | 0.04
0.00091 | – | 0.0014 | – | – | CNC(=O)Nc1nc(N)c(-c2nc(-c3cccc(NC(=O)c4ccc(Cl)s4)c3)cs2)s1 [F(1), 5-Chloro-thiophene-2-carboxylic acid {3-[4′-amino-2′-(3-methyl-ureido)-[2,5′]bithiazolyl-4-yl]-phenyl}-amide] | 0.029
0.0039 | – | 0.00471 | – | – | CC(=O)Nc1nc(N)c(-c2nc(-c3cccc(NC(=O)c4ccc(Cl)s4)c3)cs2)s1 [F(2), N-[3-(2′-Acetylamino-4′-amino-[2,5′]bithiazolyl-4-yl)-phenyl]-5-chloro-thiophene-2-carboxamide] | 0.086
– | – | – | 0.0011 | 61 | CC[C@H](CO)NC(=O)Nc1nc(N)c(-c2nc(-c3cc(NC(=O)c4cccc(OC)c4)c(F)cc3F)cs2)s1 [O(21), N-(5-{4′-Amino-2′-[3-((R)-1-hydroxymethyl-propyl)-ureido]-[2,5′]bithiazolyl-4-yl}-2,4-difluoro-phenyl)-3-methoxy-benzamide] | –

Source: patent publication US6620828B2, “Thiazole compounds and pharmaceutical compositions for inhibiting protein kinases and methods for their use” (Agouron Pharmaceuticals, Inc., priority 1999, dated 2003)
